Test results from US8466281B2, “2,5-disubstituted morpholine orexin receptor antagonists” (Merck Sharp & Dohme Corp., priority 2008, dated 2013).

How the values were obtained:
orexin-1 receptor (OX1R) = biological target: T1, orexin-1 receptor (OX1R) (UniProt O43613); test: Radioligand binding assay, OX1R; details: membranes prepared from CHO cells expressing the orexin-1 (OX1) receptor
T1 sequence (O43613 1-425): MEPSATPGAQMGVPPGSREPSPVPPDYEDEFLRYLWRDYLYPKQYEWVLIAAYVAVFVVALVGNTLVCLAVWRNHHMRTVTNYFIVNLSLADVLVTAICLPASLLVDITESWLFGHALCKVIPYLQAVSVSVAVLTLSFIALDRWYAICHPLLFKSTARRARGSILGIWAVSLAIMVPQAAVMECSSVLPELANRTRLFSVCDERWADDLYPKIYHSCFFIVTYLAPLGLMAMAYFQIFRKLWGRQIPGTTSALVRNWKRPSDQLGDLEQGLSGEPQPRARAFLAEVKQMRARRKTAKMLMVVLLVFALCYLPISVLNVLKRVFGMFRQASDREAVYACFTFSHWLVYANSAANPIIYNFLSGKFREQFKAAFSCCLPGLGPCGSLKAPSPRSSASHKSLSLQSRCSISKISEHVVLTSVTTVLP

orexin-2 receptor (OX2R) = biological target: T2, orexin-2 receptor (OX2R) (Homo sapiens, UniProt O43614); test: Radioligand binding assay, OX2R; details: membranes prepared from CHO cells expressing the orexin-2 (OX2) receptor
T2 construct: expressed in transfected cells; host or cells: CHO cells (membranes)
T2 sequence (O43614 1-444): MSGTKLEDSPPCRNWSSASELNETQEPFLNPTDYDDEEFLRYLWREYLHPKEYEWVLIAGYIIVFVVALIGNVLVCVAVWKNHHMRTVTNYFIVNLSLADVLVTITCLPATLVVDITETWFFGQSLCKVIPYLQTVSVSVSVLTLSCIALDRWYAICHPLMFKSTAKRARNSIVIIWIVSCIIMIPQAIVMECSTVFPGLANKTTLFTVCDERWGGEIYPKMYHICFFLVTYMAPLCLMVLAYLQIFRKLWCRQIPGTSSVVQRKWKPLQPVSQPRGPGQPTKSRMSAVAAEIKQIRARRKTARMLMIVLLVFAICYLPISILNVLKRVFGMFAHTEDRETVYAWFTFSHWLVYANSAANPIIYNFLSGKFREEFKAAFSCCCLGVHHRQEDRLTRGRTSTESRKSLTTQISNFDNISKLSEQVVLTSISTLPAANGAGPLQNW

| Structure (SMILES) | Ki (orexin-1 receptor (OX1R)) [nM] | Ki (orexin-2 receptor (OX2R)) [nM] |
| --- | --- | --- |
| Cc1ccc(-n2nccn2)c(C(=O)N2C[C@H](COc3nccc4ccccc34)OC[C@H]2C)c1 [A-9, 1-({(2R,5R)-5-methyl-4-[5-methyl-2-(2H-1,2,3-triazol-2-yl)benzoyl]morpholin-2-yl}methoxy)isoquinoline] | 23 | – |
| Cc1ccc(-n2nccn2)c(C(=O)N2C[C@H](COc3ccc(Br)cn3)OC[C@H]2C)c1 [A-10] | 21 | 1.3 |
| Cc1ccc(-n2nccn2)c(C(=O)N2C[C@H](COc3ncccc3C)OC[C@H]2C)c1 [A-13, (2R,5R)-5-methyl-2-{[(3-methylpyridin-2-yl)oxy]methyl}-4-[5-methyl-2-(2H-1,2,3-triazol-2-yl)benzoyl]morpholine] | 720 | 8.3 |

Continued by falling Ki (orexin-1 receptor (OX1R)), values first:

| Ki (orexin-1 receptor (OX1R)) [nM] | Ki (orexin-2 receptor (OX2R)) [nM] | Structure (SMILES) |
| --- | --- | --- |
| 17 | 39 | Cc1ccc(-n2nccn2)c(C(=O)N2C[C@H](COc3ccnc4ccccc34)OC[C@H]2C)c1 [A-12, 4-({(2R,5R)-5-methyl-4-[5-methyl-2-(2H-1,2,3-triazol-2-yl)benzoyl]morpholin-2-yl}methoxy)quinoline] |
| 2.2 | – | Cc1ccc(-n2nccn2)c(C(=O)N2C[C@H](COc3nccc4ccccc34)OC[C@H]2C)c1 [A-11, 1-({(2R,5R)-5-methyl-4-[5-methyl-2-(2H-1,2,3-triazol-2-yl)benzoyl]morpholin-2-yl}methoxy)isoquinoline] |
